Data published in PubChem BioAssay (NCI).
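Values below derive from 48-hour exposures of cells grown in 96-well plates, with endpoints linearly interpolated between the two concentrations bracketing the appropriate inhibition level. GI50 is the concentration that inhibits growth by half. Definition used: TGI = concentration required for complete inhibition of growth.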

Tests used:
Test in all cases: growth of human tumour cells (NCI), 48 h
SK-MEL-5 melanoma = test system: SK-MEL-5 melanoma
HCT-15 colon = test system: HCT-15 colon
COLO 205 colon = test system: COLO 205 colon
A498 renal = test system: A498 renal
SF-295 CNS = test system: SF-295 CNS
BT-549 breast = test system: BT-549 breast
HCC-2998 colon = test system: HCC-2998 colon
NCI-H460 lung = test system: NCI-H460 lung
SNB-75 CNS = test system: SNB-75 CNS
OVCAR-5 ovarian = test system: OVCAR-5 ovarian
NCI-H23 lung = test system: NCI-H23 lung
K-562 leukemia = test system: K-562 leukemia
PC-3 prostate = test system: PC-3 prostate
MOLT-4 leukemia = test system: MOLT-4 leukemia
HS 578T breast = test system: HS 578T breast
SF-268 CNS = test system: SF-268 CNS
ACHN renal = test system: ACHN renal
OVCAR-8 ovarian = test system: OVCAR-8 ovarian
UO-31 renal = test system: UO-31 renal
LOX IMVI melanoma = test system: LOX IMVI melanoma
T-47D breast = test system: T-47D breast
IGROV1 ovarian = test system: IGROV1 ovarian
MDA-MB-231 breast = test system: MDA-MB-231 breast
SF-539 CNS = test system: SF-539 CNS
HCT-116 colon = test system: HCT-116 colon
SW-620 colon = test system: SW-620 colon
HT29 colon = test system: HT29 colon
HOP-92 NSCLC = test system: HOP-92 NSCLC
NCI-H226 lung = test system: NCI-H226 lung
EKVX NSCLC = test system: EKVX NSCLC
DU-145 prostate = test system: DU-145 prostate
RPMI-8226 leukemia = test system: RPMI-8226 leukemia
NCI/ADR-RES ovarian = test system: NCI/ADR-RES ovarian
SR leukemia = test system: SR leukemia
OVCAR-3 ovarian = test system: OVCAR-3 ovarian
SNB-19 CNS = test system: SNB-19 CNS
NCI-H522 lung = test system: NCI-H522 lung
SK-OV-3 ovarian = test system: SK-OV-3 ovarian
UACC-62 melanoma = test system: UACC-62 melanoma
SN12C renal = test system: SN12C renal
OVCAR-4 ovarian = test system: OVCAR-4 ovarian
A549 NSCLC = test system: A549 NSCLC
HL-60(TB) leukemia = test system: HL-60(TB) leukemia
HOP-62 NSCLC = test system: HOP-62 NSCLC
UACC-257 melanoma = test system: UACC-257 melanoma
RXF 393 renal = test system: RXF 393 renal
SK-MEL-28 melanoma = test system: SK-MEL-28 melanoma
TK-10 renal = test system: TK-10 renal
786-0 renal = test system: 786-0 renal
KM12 colon = test system: KM12 colon
U251 CNS = test system: U251 CNS
MALME-3M melanoma = test system: MALME-3M melanoma
M14 melanoma = test system: M14 melanoma
MDA-MB-435 = test system: MDA-MB-435
MCF7 breast = test system: MCF7 breast
CCRF-CEM leukemia = test system: CCRF-CEM leukemia

With COc1cc2c(cc1OCCCCNC(=O)c1cc3ccccc3[nH]1)N=CC1CCCN1C2=O (configuration not stated) the GI50 (SK-MEL-5 melanoma) was 5.65 µM, the TGI (SK-MEL-5 melanoma) was 23.9 µM and the GI50 (HCT-15 colon) was 16.4 µM. The TGI (HCT-15 colon) was 58.2 µM, the GI50 (COLO 205 colon) was 16 µM and the TGI (COLO 205 colon) was > 100 µM. For the same compound, the GI50 (A498 renal) was 22.2 µM, the TGI (A498 renal) was 44.4 µM and the GI50 (SF-295 CNS) was 12.7 µM. The TGI (SF-295 CNS) was 41.6 µM, the GI50 (BT-549 breast) was 8.79 µM and the TGI (BT-549 breast) was 51.1 µM. The GI50 (HCC-2998 colon) was 16.6 µM, the TGI (HCC-2998 colon) was 45.1 µM and the GI50 (NCI-H460 lung) was 11.9 µM. For the same compound, the TGI (NCI-H460 lung) was 65.1 µM, the GI50 (SNB-75 CNS) was 33.9 µM and the TGI (SNB-75 CNS) was > 100 µM. For the same compound, the GI50 (OVCAR-5 ovarian) was 22.9 µM, the TGI (OVCAR-5 ovarian) was > 100 µM and the GI50 (NCI-H23 lung) was 28.4 µM. The TGI (NCI-H23 lung) was > 100 µM, the GI50 (K-562 leukemia) was 8.35 µM and the TGI (K-562 leukemia) was > 100 µM. The GI50 (PC-3 prostate) was 22 µM, the TGI (PC-3 prostate) was > 100 µM and the GI50 (MOLT-4 leukemia) was 8.72 µM. For the same compound, the TGI (MOLT-4 leukemia) was > 100 µM, the GI50 (HS 578T breast) was 16.1 µM and the TGI (HS 578T breast) was 71.5 µM. It also gave a GI50 (SF-268 CNS) of 4.4 µM, a TGI (SF-268 CNS) of 28 µM and a GI50 (ACHN renal) of 22.6 µM. For the same compound, the TGI (ACHN renal) was > 100 µM, the GI50 (OVCAR-8 ovarian) was 16.7 µM and the TGI (OVCAR-8 ovarian) was 78.9 µM. It also gave a GI50 (UO-31 renal) of 7.16 µM, a TGI (UO-31 renal) of 74.1 µM and a GI50 (LOX IMVI melanoma) of 8.96 µM. For the same compound, the TGI (LOX IMVI melanoma) was 63.8 µM, the GI50 (T-47D breast) was 21.7 µM and the TGI (T-47D breast) was > 100 µM. The GI50 (IGROV1 ovarian) was 18.1 µM, the TGI (IGROV1 ovarian) was > 100 µM and the GI50 (MDA-MB-231 breast) was 14.9 µM. The TGI (MDA-MB-231 breast) was 66.8 µM, the GI50 (SF-539 CNS) was 8.57 µM and the TGI (SF-539 CNS) was 41.7 µM. The GI50 (HCT-116 colon) was 35.9 µM, the TGI (HCT-116 colon) was > 100 µM and the GI50 (SW-620 colon) was 9.84 µM. For the same compound, the TGI (SW-620 colon) was 67.6 µM, the GI50 (HT29 colon) was 32.6 µM and the TGI (HT29 colon) was > 100 µM. The GI50 (HOP-92 NSCLC) was 12.2 µM, the TGI (HOP-92 NSCLC) was 75.4 µM and the GI50 (NCI-H226 lung) was 30.7 µM. The TGI (NCI-H226 lung) was > 100 µM, the GI50 (EKVX NSCLC) was 17.8 µM and the TGI (EKVX NSCLC) was 42.2 µM. It also gave a GI50 (DU-145 prostate) of 5.31 µM, a TGI (DU-145 prostate) of 69.8 µM and a GI50 (RPMI-8226 leukemia) of 5.67 µM. For the same compound, the TGI (RPMI-8226 leukemia) was 96.3 µM, the GI50 (NCI/ADR-RES ovarian) was 20.9 µM and the TGI (NCI/ADR-RES ovarian) was > 100 µM. For the same compound, the GI50 (SR leukemia) was > 100 µM, the TGI (SR leukemia) was > 100 µM and the GI50 (OVCAR-3 ovarian) was 8.59 µM. The TGI (OVCAR-3 ovarian) was > 100 µM, the GI50 (SNB-19 CNS) was 20.2 µM and the TGI (SNB-19 CNS) was > 100 µM. The GI50 (NCI-H522 lung) was 4.43 µM, the TGI (NCI-H522 lung) was 79.9 µM and the GI50 (SK-OV-3 ovarian) was 29.9 µM. It also gave a TGI (SK-OV-3 ovarian) of 83.6 µM, a GI50 (UACC-62 melanoma) of 15.8 µM and a TGI (UACC-62 melanoma) of 40.7 µM. The GI50 (SN12C renal) was 18.9 µM, the TGI (SN12C renal) was 44.8 µM and the GI50 (OVCAR-4 ovarian) was 28.2 µM. For the same compound, the TGI (OVCAR-4 ovarian) was 94.4 µM, the GI50 (A549 NSCLC) was 28.3 µM and the TGI (A549 NSCLC) was > 100 µM. For the same compound, the GI50 (HL-60(TB) leukemia) was 7.97 µM, the TGI (HL-60(TB) leukemia) was > 100 µM and the GI50 (HOP-62 NSCLC) was 31.5 µM. The TGI (HOP-62 NSCLC) was > 100 µM, the GI50 (UACC-257 melanoma) was 17.4 µM and the TGI (UACC-257 melanoma) was 43.8 µM. For the same compound, the GI50 (RXF 393 renal) was 2.35 µM, the TGI (RXF 393 renal) was 6.28 µM and the GI50 (SK-MEL-28 melanoma) was 37.5 µM. For the same compound, the TGI (SK-MEL-28 melanoma) was > 100 µM, the GI50 (TK-10 renal) was 14.7 µM and the TGI (TK-10 renal) was 33.6 µM. For the same compound, the GI50 (786-0 renal) was 33.5 µM, the TGI (786-0 renal) was > 100 µM and the GI50 (KM12 colon) was 16.9 µM. For the same compound, the TGI (KM12 colon) was 52.6 µM, the GI50 (U251 CNS) was 10.5 µM and the TGI (U251 CNS) was > 100 µM. The GI50 (MALME-3M melanoma) was 20 µM, the TGI (MALME-3M melanoma) was 47.7 µM and the GI50 (M14 melanoma) was 28.2 µM. The TGI (M14 melanoma) was > 100 µM, the GI50 (MDA-MB-435) was 20.3 µM and the TGI (MDA-MB-435) was 74.6 µM. The GI50 (MCF7 breast) was 6.82 µM, the TGI (MCF7 breast) was > 100 µM and the GI50 (CCRF-CEM leukemia) was 3.45 µM. For the same compound, the TGI (CCRF-CEM leukemia) was > 100 µM.
